# How the values were obtained:
# [1] = test system: avian myeloblastosis virus RTase; assay type: biochemical; conditions: 37° C., 40 minutes
# Method: According to the method disclosed in Journal of Biological Chemistry, 1987, 262, p. 2187, the RTase inhibitory effect of the compounds of this invention is determined as follows:
# More specifically, the compound of the present invention was added, in various amount, to a reaction solution which comprised 80 mM of Tris buffer solution (pH 8), 6 mM of magnesium chloride, 80 mM of potassium chloride, 10 mM of dithiothreitol, 20 μg/ml of polyadenylic acid, 0.02 μg/ml of oligodeoxy thymidine, 20 μM of tritium-labeled deoxythymidine-triphosphate and avian myeloblastosis virus RTase so that the total volume of the resultant solution was equal to 100 μl. After the reaction solution was incubated at 37° C. for 40 minutes, 100 μl of an ice-cooled 10% trichloroacetic acid solution was added to the solution to stop the reaction.
# The reaction solution was filtered through a glass filter (Whatmann GF/C) and washed with a 10% trichloroacetic acid solution and then with ethanol. Thereafter, the glass filter was dried and examined by liquid scintillation counter.
# [2] = test system: HTLV-IIIB-infected MT-4 cells; experiment: Inhibitory effect on expression of HIV-specific antigen (immunofluorescence); assay type: cell-based
# Method: After drying the cells cultured in Experiment 1 on a slide glass, they were fixed with methanol for 3 minutes and treated with human anti-HIV-III positive serum (IF antibody titer×4096) which was diluted 1/1,000 time at 37° C. for 30 minutes. Thereafter, it was washed with phosphate-buffered saline (PBS) for 15 minutes and treated with an anti-human IgG conjugated with fluorescein-isothiocyanate at 37° C. for 30 minutes. It was again washed with PBS and then the number of fluorescent cells, more specifically expressed HIV-specific virus antigen proteins were determined with a fluorescence microscope. "%" is a ratio of the number of fluorescent ray emitting cells to the number of total cells.
# [3] = test system: HTLV-IIIB-non-infected MT-4 cells; experiment: Toxicity: influence on the proliferation of T cells; assay type: cell-based, human
# Method: (§1) HTLV-IIIB-infected MT-4 cells were inoculated on RPMI 1640 culture mediums containing 10% heat-inactivated fetal calf serum, 100 IU/ml of penicillin and 100 μg/ml of streptomycin, to which tannic acid-S had been added in a variety of concentrations, in a cell number of 300,000/ml and were cultured at 37° C. in a carbon dioxide incubator. After the cultivation for three days, one half of the culture medium was withdrawn and the survival rate and the viable count (X 10^4 /ml) of the MT-4 cells in the medium were determined by a trypan blue dye exclusion test. To the remaining cultured cells, an equivalent amount of RPMI 1640 culture medium each containing the same amount of the drugs were added, the cultivation was further continued for additional 3 days and likewise the survival rate and the viable count were determined.
# As in Experiment 1, there was observed the influence of the compounds (drugs) of the present invention on the proliferation of HTLV-IIIB-non-infected MT-4 cells. The results thus observed are listed on the following Tables XI to XIV. The numerical values in these Tables mean viable count (X 10^4 /ml) and those in parentheses mean survival rates.
# [4] = test system: MOLT-4 and MOLT-4/HIV HTLV-IIIB cells; experiment: Inhibitory effect on giant cell formation by mixed cultivation of MOLT-4 and MOLT-4/HIV HTLV-IIIB cells; assay type: cell-based, human; conditions: 24 hours co-culture, co-culture control 18.5%
# Method: This experiment was performed by the recently developed method of Yamamoto et al. (see Yamamoto et al., Virology, 1988, 164, p. 542; and J. Clinical Microbiology, 1988, 26, p. 1229).
# MOLT-4 cells which are HTLV-I negative human T cell strain, and MOLT-4/HIVHT LV II IB cells which are persistently HIV-infected cells are separately cultured in a RPMI 1640 culture medium supplemented with 10% fetal calf serum to a cell density of 5×10^5 /ml respectively, these were mixed in a ratio of 1:1 and the drug was added thereto.
# The mixed culture medium was cultured at 37° C. for 24 hours in a carbon dioxide incubator and the distribution of cell size was determined by a Cell Multisizer (available from Coulter Electronics, Ltd., Luton, England).
# In Table IX, the rate of cell having a size of not less than 20 μm is expressed by "%". If MOLT-4 cells and MOLT-4/HIVHT LV II IB cells are separately cultured, the rates are 4.5 and 3.3% respectively, but it increased up to 18.5% when they are co-cultured. When tannic acid-S was added to the mixed culture medium in a concentration of 5 μg/ml, the rate was reduced to 8.2%.
# [5] = test system: HTLV-IIIB-infected MT-4 cells; experiment: Inhibitory effect of drugs on HIV-induced cell damage (trypan blue dye exclusion); assay type: cell-based
# Method: In this experiment, there were used human MT4 cells, a human T4-positive cell line carrying adult T-cell leukemia causative virus, HTLV-1 (Gann Monogr.,1982, Vol. 28, pp. 219 -228) and HTLF-IIIB which is one of the HIV strains.
# as §1
# [6] = Stability of powder and aqueous solution; conditions: powder state and aqueous solution
# [7] = drug 50 μg/ml, culture period 3 days
# [8] = drug 50 μg/ml, culture period 6 days
# [9] = drug 100 μg/ml, culture period 3 days
# [10] = drug 100 μg/ml, culture period 6 days
# [11] = drug 200 μg/ml, culture period 3 days
# [12] = drug 200 μg/ml, culture period 6 days
# [13] = drug 400 μg/ml, culture period 3 days
# [14] = drug 400 μg/ml, culture period 6 days
substance,measurement,setting,value
"sodium salt of sulfuric acid ester of 1,2,3,4,6-penta-O-galloyl-β-D-glucose [Example 7]",RTase Inhibitory Effect (IC50),[1],0.45 µg/mL
sodium salt of ellagic acid sulfate [Ellagic acid-S],Ratio of fluorescent ray emitting cells to total cells,[2]; [7],< 1%
same,Ratio of fluorescent ray emitting cells to total cells,[2]; [8],90%
same,Ratio of fluorescent ray emitting cells to total cells,[2]; [9],< 1%
same,Ratio of fluorescent ray emitting cells to total cells,[2]; [10],6.4%
same,Ratio of fluorescent ray emitting cells to total cells,[2]; [11],< 1%
same,Ratio of fluorescent ray emitting cells to total cells,[2]; [12],< 1%
same,Ratio of fluorescent ray emitting cells to total cells,[2]; [13],0%
same,Ratio of fluorescent ray emitting cells to total cells,[2]; [14],< 1%
same,Viable count,[3]; [7],700000 mL⁻¹
same,survival rate,[3]; [7],84
same,Viable count,[3]; [8],1.37e+06 mL⁻¹
same,survival rate,[3]; [8],89
same,Viable count,[3]; [9],990000 mL⁻¹
same,survival rate,[3]; [9],87
same,Viable count,[3]; [10],1.09e+06 mL⁻¹
same,survival rate,[3]; [10],83
same,Viable count,[3]; [11],990000 mL⁻¹
same,survival rate,[3]; [11],83
same,Viable count,[3]; [12],1.04e+06 mL⁻¹
same,survival rate,[3]; [12],85
same,Viable count,[3]; [13],810000 mL⁻¹
same,survival rate,[3]; [13],84
same,Viable count,[3]; [14],700000 mL⁻¹
same,survival rate,[3]; [14],82
same,Rate of Giant Cell (cells of size not less than 20 μm),[4]; drug 25 μg/ml,15.1%
same,Rate of Giant Cell (cells of size not less than 20 μm),[4]; drug 50 μg/ml,17.0%
same,Rate of Giant Cell (cells of size not less than 20 μm),[4]; drug 100 μg/ml,13.0%
same,Rate of Giant Cell (cells of size not less than 20 μm),[4]; drug 200 μg/ml,9.5%
same,Viable count,[5]; [7],740000 mL⁻¹
same,survival rate,[5]; [7],82%
same,Viable count,[5]; [8],230000 mL⁻¹
same,survival rate,[5]; [8],43%
same,Viable count,[5]; [9],810000 mL⁻¹
same,survival rate,[5]; [9],84%
same,Viable count,[5]; [10],1.03e+06 mL⁻¹
same,survival rate,[5]; [10],78%
same,Viable count,[5]; [11],830000 mL⁻¹
same,survival rate,[5]; [11],87%
same,Viable count,[5]; [12],860000 mL⁻¹
same,survival rate,[5]; [12],83%
same,Viable count,[5]; [13],730000 mL⁻¹
same,survival rate,[5]; [13],82%
same,Viable count,[5]; [14],470000 mL⁻¹
same,survival rate,[5]; [14],89%
"sodium salt of sulfated 3,4,5- trigalloylquinic acid [Example 12]",RTase Inhibitory Effect (IC50),[1],9.2 µg/mL
sodium salt of sulfated (-)-epigallocathechin-3-gallate [Epigallocatechin gallate-S],Ratio of fluorescent ray emitting cells to total cells,[2]; [7],< 1%
same,Ratio of fluorescent ray emitting cells to total cells,[2]; [8],< 1%
same,Ratio of fluorescent ray emitting cells to total cells,[2]; [9],< 1%
same,Ratio of fluorescent ray emitting cells to total cells,[2]; [10],< 1%
same,Ratio of fluorescent ray emitting cells to total cells,[2]; [11],< 1%
same,Ratio of fluorescent ray emitting cells to total cells,[2]; [12],< 1%
same,Ratio of fluorescent ray emitting cells to total cells,[2]; [13],< 1%
same,Ratio of fluorescent ray emitting cells to total cells,[2]; [14],< 1%
same,Stability,[6],stable in powder state and in the form of aqueous solutions
same,Viable count,[3]; [7],1.06e+06 mL⁻¹
same,survival rate,[3]; [7],88
same,Viable count,[3]; [8],400000 mL⁻¹
same,survival rate,[3]; [8],92
same,Viable count,[3]; [9],1.14e+06 mL⁻¹
same,survival rate,[3]; [9],85
same,Viable count,[3]; [10],370000 mL⁻¹
same,survival rate,[3]; [10],91
same,Viable count,[3]; [11],900000 mL⁻¹
same,survival rate,[3]; [11],91
same,Viable count,[3]; [12],950000 mL⁻¹
same,survival rate,[3]; [12],92
same,Viable count,[3]; [13],960000 mL⁻¹
same,survival rate,[3]; [13],89
same,Viable count,[3]; [14],530000 mL⁻¹
same,survival rate,[3]; [14],95
same,Rate of Giant Cell (cells of size not less than 20 μm),[4]; drug 25 μg/ml,13.8%
same,Rate of Giant Cell (cells of size not less than 20 μm),[4]; drug 50 μg/ml,17.5%
same,Rate of Giant Cell (cells of size not less than 20 μm),[4]; drug 100 μg/ml,5.6%
same,Rate of Giant Cell (cells of size not less than 20 μm),[4]; drug 200 μg/ml,0.4%
same,Viable count,[5]; [7],830000 mL⁻¹
same,survival rate,[5]; [7],85%
same,Viable count,[5]; [8],1.3e+06 mL⁻¹
same,survival rate,[5]; [8],92%
same,Viable count,[5]; [9],840000 mL⁻¹
same,survival rate,[5]; [9],83%
same,Viable count,[5]; [10],1.25e+06 mL⁻¹
same,survival rate,[5]; [10],95%
same,Viable count,[5]; [11],810000 mL⁻¹
same,survival rate,[5]; [11],89%
same,Viable count,[5]; [12],750000 mL⁻¹
same,survival rate,[5]; [12],87%
same,Viable count,[5]; [13],720000 mL⁻¹
same,survival rate,[5]; [13],82%
same,Viable count,[5]; [14],500000 mL⁻¹
same,survival rate,[5]; [14],86%
"sodium salt of sulfuric acid ester of 1,2,3,4,6-penta-O-galloyl-β-D-glucose [Example 9]",RTase Inhibitory Effect (IC50),[1],< 0.096 µg/mL
sodium salt of epicatechin sulfate [Epicatechin-S],Ratio of fluorescent ray emitting cells to total cells,[2]; [7],< 1%
same,Ratio of fluorescent ray emitting cells to total cells,[2]; [8],90%
same,Ratio of fluorescent ray emitting cells to total cells,[2]; [9],< 1%
same,Ratio of fluorescent ray emitting cells to total cells,[2]; [10],< 1%
same,Ratio of fluorescent ray emitting cells to total cells,[2]; [11],< 1%
same,Ratio of fluorescent ray emitting cells to total cells,[2]; [12],< 1%
same,Ratio of fluorescent ray emitting cells to total cells,[2]; [13],< 1%
same,Ratio of fluorescent ray emitting cells to total cells,[2]; [14],< 1%
same,Viable count,[3]; [7],1.14e+06 mL⁻¹
same,survival rate,[3]; [7],91
same,Viable count,[3]; [8],1.38e+06 mL⁻¹
same,survival rate,[3]; [8],85
same,Viable count,[3]; [9],1.1e+06 mL⁻¹
same,survival rate,[3]; [9],86
same,Viable count,[3]; [10],1.47e+06 mL⁻¹
same,survival rate,[3]; [10],93
same,Viable count,[3]; [11],1.11e+06 mL⁻¹
same,survival rate,[3]; [11],83
same,Viable count,[3]; [12],1.33e+06 mL⁻¹
same,survival rate,[3]; [12],92
same,Viable count,[3]; [13],1.18e+06 mL⁻¹
same,survival rate,[3]; [13],86
same,Viable count,[3]; [14],1.37e+06 mL⁻¹
same,survival rate,[3]; [14],92
same,Rate of Giant Cell (cells of size not less than 20 μm),[4]; drug 25 μg/ml,14.2%
same,Rate of Giant Cell (cells of size not less than 20 μm),[4]; drug 50 μg/ml,14.0%
same,Rate of Giant Cell (cells of size not less than 20 μm),[4]; drug 100 μg/ml,15.1%
same,Rate of Giant Cell (cells of size not less than 20 μm),[4]; drug 200 μg/ml,13.9%
same,Viable count,[5]; [7],940000 mL⁻¹
same,survival rate,[5]; [7],95%
same,Viable count,[5]; [8],450000 mL⁻¹
same,survival rate,[5]; [8],63%
same,Viable count,[5]; [9],990000 mL⁻¹
same,survival rate,[5]; [9],87%
same,Viable count,[5]; [10],1.1e+06 mL⁻¹
same,survival rate,[5]; [10],92%
same,Viable count,[5]; [11],890000 mL⁻¹
same,survival rate,[5]; [11],86%
same,Viable count,[5]; [12],1.22e+06 mL⁻¹
same,survival rate,[5]; [12],91%
same,Viable count,[5]; [13],910000 mL⁻¹
same,survival rate,[5]; [13],85%
same,Viable count,[5]; [14],1.33e+06 mL⁻¹
same,survival rate,[5]; [14],91%
